Measured values reported in EP3409787A1, “TWO SNPS (SINGLE NUCLEOTIDE POLYMORPHISMS) IN THE SEQUENCE OF THE BETA, BETA-CAROTENE 15,15 DIOXYGENASE GENE AND THEIR USE” (DSM IP Assets B.V., priority 2017, dated 2018).

Test: Supplementation study: Total Body Stores of vitamin A (TBS) by isotope dilution with [13C10] retinyl acetate
Type: in vivo, human subjects
Conditions: 7 mg beta-carotene daily, 54 days, humans
Description: The person skilled in art knows how to determine the Total Body Stores (TBS) of vitamin A, e.g. by determining the [^13C10] retinyl acetate dose after a sufficient period (circa 3 days) of isotope dilution with endogenous pools.
The study underlying the present invention analyzed inter alia the Total Body Store of vitamin A (TBS) using an isotope dilution method and [^13C10] retinol concentrations, and determined the effect of the rs7501331 or rs6564851 SNPs on BCO1 enzyme activity. To enable the analysis of SNPs on TBS, stepwise multiple regression was performed using the Akaike Information Criterion (AIC) to evaluate the covariates dietary intake of retinol, provitamin A carotenoids and retinol equivalents, age, BMI and body fat. The most significant covariant used for the selective model to analyze the SNP and TBS interaction was dietary retinol equivalent, with an AIC of 276.5. Thus, the final model tested the effects of the rs7501331 or rs6564851 SNPs on TBS at both baseline and after 54 days of supplementation accounting for dietary retinol equivalent as the only co-variant in the analysis.
The study was a randomized, single blind supplementation design combined with retrospective genotyping to test three beta-carotene formulations (7mg β-carotene/day) for a period of 8 weeks. […] On day 1 and 57 of each supplementation period, a fasting blood sample was taken before the oral administration of 2 mg of [^13C10] β-carotene and 0.4 mg of [^13C10] retinyl acetate as part of a test breakfast meal. Further blood samples were taken at 2, 4, 6, 8, 10 and 12 hours post-dose. For the first formulation (BetaTab 20%S) single fasting blood samples were also taken at day 2, 3, 4, 8, 10, 22, 36 and day 57 of the 8 week supplementation period followed by fasting blood samples at day 58, 59, 60, 64, 66, 78, 92 and 113 during the wash-out period. […] However, overall body retinol homeostasis was determined using supplement 1 (BetaTab 20% S).

CC1=C(/C=C/C(C)=C/C=C/C(C)=C/C=C/C=C(C)/C=C/C=C(C)/C=C/C2=C(C)CCCC2(C)C)C(C)(C)CCC1 [beta-carotene]
effect of rs7501331 (A379V) SNP / dominant T variant on TBS values after supplementation: can overcome | effect of the rs6564851 SNPs on TBS after supplementation: does not disappear | effect of rs7501331 (A379V) SNP / dominant T variant on TBS values after supplementation (listed as ß-carotene): disappeared
